Consider ten compounds from PubChem BioAssay AID250 (DTP/NCI, 2004).

Several values for one entry are separate records, joined by “and”; a condition that tells them apart may be missing. Equal entries are not always repeated. Toxic doses and inconclusive results are not listed.

The experiment deals with BDF1 mice, L1210 leukemia sc, survival T/C. In words: NCI In Vivo Anticancer Drug Screen. Data for tumor model L1210 Leukemia (subcutaneous) in B6D2F1 (BDF1) mice. Conditions: endpoint: median survival time, higher = longer survival. The method, boiled down: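 Tumors were transplanted into mice, the animals were treated with compound, survival or tumor size was then measured, and treated values were divided by vehicle-control values.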

[1] abbreviates: dose: 8.4 mg/kg/injection, schedule: Q01DX Z (sc), vehicle: methylcellulose (MC).
Where [2] appears, read: dose: 14.0 mg/kg/injection, schedule: Q01DX Z (sc), vehicle: methylcellulose (MC).
Where [3] appears, read: dose: 23.0 mg/kg/injection, schedule: Q01DX Z (sc), vehicle: methylcellulose (MC).
Where [4] appears, read: dose: 39.0 mg/kg/injection, schedule: Q01DX Z (sc), vehicle: methylcellulose (MC).
Where [5] appears, read: dose: 65.0 mg/kg/injection, schedule: Q01DX Z (sc), vehicle: methylcellulose (MC).
Where [6] appears, read: dose: 108.0 mg/kg/injection, schedule: Q01DX Z (sc), vehicle: methylcellulose (MC).
The mark [7] stands for this setting: dose: 180.0 mg/kg/injection, schedule: Q01DX Z (sc), vehicle: methylcellulose (MC).
Where [8] appears, read: dose: 300.0 mg/kg/injection, schedule: Q01DX Z (sc), vehicle: methylcellulose (MC).
Setting [9] is: dose: 500.0 mg/kg/injection, schedule: Q01DX Z (sc), vehicle: methylcellulose (MC).
Where [10] appears, read: dose: 833.0 mg/kg/injection, schedule: Q01DX Z (sc), vehicle: methylcellulose (MC).

Regarding `CS(=O)(=O)OCC(O)C(O)C(O)C(O)COS(C)(=O)=O` (stereo not drawn), the T/C was 103 % of control under setting [1]; 100 % of control under setting [2]; 96 % of control under setting [3]; 100 % of control under setting [4]; 100 % of control under setting [5]; 100 % of control under setting [6]. In addition, the T/C under setting [7] was 103 % of control, the T/C under setting [8] was 107 % of control and the T/C under setting [9] is 103 % of control.

`Oc1cc(CN(CCCl)CCCl)c(O)cc1CN(CCCl)CCCl`: the T/C by setting is: (dose: 3.0 mg/kg/injection, schedule: Q01DX Z (sc), vehicle: methylcellulose (MC)) 100 % of control; (dose: 5.0 mg/kg/injection, schedule: Q01DX Z (sc), vehicle: methylcellulose (MC)) 105 % of control; under setting [1], 110 % of control; under setting [2], 100 % of control; under setting [3], 105 % of control; under setting [4], 110 % of control. Besides, the T/C was 110 % of control under setting [5], 120 % of control under setting [6] and 120 % of control under setting [7].

Turning to `O=C(O)c1ccc([N+](=O)[O-])cc1`, the T/C under setting [3] is 104 % of control.

Turning to `CCCCCCCSc1ncnc2nc[nH]c12`, the T/C under setting [6] is 111 % of control; the T/C under setting [7] is 111 % of control; the T/C under setting [8] is 100 % of control; the T/C under setting [9] was 100 % of control; the T/C under setting [10] is 100 % of control; the T/C (dose: 1388.0 mg/kg/injection, schedule: Q01DX Z (sc), vehicle: methylcellulose (MC)) was 100 % of control.

For the compound `CCOC1=C(N2CC2)C(=O)C(OCC)=C(N2CC2)C1=O`, the T/C is, setting by setting: (dose: 3.0 mg/kg/injection, schedule: Q01DX Z (sc), vehicle: carboxymethylcellulose (CMC)) 109 % of control; (dose: 14.0 mg/kg/injection, schedule: Q01DX Z (sc), vehicle: carboxymethylcellulose (CMC)) 122 % of control; (dose: 23.0 mg/kg/injection, schedule: Q01DX Z (sc), vehicle: carboxymethylcellulose (CMC)) 109 % of control.

Turning to `Cn1cc(NC(=O)c2cc(NC(=O)CN=C(N)N)cn2C)cc1C(=O)NCCC(=N)N`, the T/C is, setting by setting: (dose: 6.0 mg/kg/injection, schedule: Q01DX Z (sc), vehicle: methylcellulose (MC)) 100 % of control; (dose: 12.0 mg/kg/injection, schedule: Q01DX Z (sc), vehicle: methylcellulose (MC)) 100 % of control; (dose: 24.0 mg/kg/injection, schedule: Q01DX Z (sc), vehicle: methylcellulose (MC)) 100 % of control.

`O=c1[nH]cc(N(CCCl)CCCl)c(=O)[nH]1`: the T/C was 100 % of control (dose: 0.23 mg/kg/injection, schedule: Q01DX Z (sc), vehicle: other); 100 % of control (dose: 0.39 mg/kg/injection, schedule: Q01DX Z (sc), vehicle: other); 100 % of control (dose: 0.65 mg/kg/injection, schedule: Q01DX Z (sc), vehicle: other); 100 % of control (dose: 1.08 mg/kg/injection, schedule: Q01DX Z (sc), vehicle: other); 105 % of control and 110 % of control (dose: 1.8 mg/kg/injection, schedule: Q01DX Z (sc), vehicle: other); 110 % of control and 115 % of control (dose: 3.0 mg/kg/injection, schedule: Q01DX Z (sc), vehicle: other). For the same compound, the T/C reads like this: (dose: 5.0 mg/kg/injection, schedule: Q01DX Z (sc), vehicle: other) 150 % of control and 160 % of control; (dose: 8.4 mg/kg/injection, schedule: Q01DX Z (sc), vehicle: other) 100 % of control and 120 % of control; (dose: 14.0 mg/kg/injection, schedule: Q01DX Z (sc), vehicle: other) 120 % of control.

For the compound `O=c1[nH]c(=O)n(C2CC(O)C(CO)O2)cc1Br` (stereo not drawn), the T/C is, setting by setting: (dose: 65.0 mg/kg/injection, schedule: Q01DX Z (sc), vehicle: saline) 111 % of control; (dose: 108.0 mg/kg/injection, schedule: Q01DX Z (sc), vehicle: saline) 111 % of control; (dose: 180.0 mg/kg/injection, schedule: Q01DX Z (sc), vehicle: saline) 111 % of control; (dose: 300.0 mg/kg/injection, schedule: Q01DX Z (sc), vehicle: saline) 111 % of control; (dose: 500.0 mg/kg/injection, schedule: Q01DX Z (sc), vehicle: saline) 122 % of control; (dose: 833.0 mg/kg/injection, schedule: Q01DX Z (sc), vehicle: saline) 122 % of control.

On to `C[C@]12C=CC(=O)C=C1CC[C@@H]1[C@@H]2C(=O)C[C@@]2(C)[C@H]1CC[C@]2(O)C(=O)CO`, for which the T/C runs as follows: (dose: 25.0 mg/kg/injection, schedule: Q01DX009 (sc), vehicle: water) 100 % of control; (dose: 50.0 mg/kg/injection, schedule: Q01DX009 (sc), vehicle: water) 100 % of control; (dose: 100.0 mg/kg/injection, schedule: Q01DX009 (sc), vehicle: water) 100 % of control; under setting [6], 109 % of control; (dose: 140.0 mg/kg/injection, schedule: Q01DX Z (oral), vehicle: water) 111 % of control; (dose: 140.0 mg/kg/injection, schedule: Q02DX Z (sc), vehicle: water) 122 % of control. For the same compound, the T/C runs as follows: (dose: 180.0 mg/kg/injection, schedule: Q01DX009 (sc), vehicle: water) 116 % of control; under setting [7], 100 % of control; (dose: 180.0 mg/kg/injection, schedule: Q02DX009 (sc), vehicle: steriod suspending solution) 107 % of control; (dose: 180.0 mg/kg/injection, schedule: Q02DX Z (sc), vehicle: steriod suspending solution) 111 % of control; (dose: 200.0 mg/kg/injection, schedule: Q01DX009 (sc), vehicle: water) 100 % of control; (dose: 233.0 mg/kg/injection, schedule: Q01DX Z (oral), vehicle: water) 111 % of control. Further, the T/C reads like this: under setting [8], 109 % of control and 112 % of control; (dose: 300.0 mg/kg/injection, schedule: Q02DX009 (sc), vehicle: steriod suspending solution) 104 % of control; (dose: 300.0 mg/kg/injection, schedule: Q02DX Z (sc), vehicle: steriod suspending solution) 105 % of control; (dose: 389.0 mg/kg/injection, schedule: Q01DX Z (oral), vehicle: water) 116 % of control; (dose: 389.0 mg/kg/injection, schedule: Q02DX Z (sc), vehicle: water) 155 % of control; (dose: 400.0 mg/kg/injection, schedule: Q01DX009 (sc), vehicle: water) 88 % of control and 100 % of control. For the same compound, the T/C under setting [9] is 104 % of control and 112 % of control; the T/C (dose: 500.0 mg/kg/injection, schedule: Q02DX009 (sc), vehicle: steriod suspending solution) was 101 % of control; the T/C (dose: 500.0 mg/kg/injection, schedule: Q02DX Z (sc), vehicle: steriod suspending solution) was 100 % of control; the T/C (dose: 648.0 mg/kg/injection, schedule: Q01DX Z (oral), vehicle: water) was 122 % of control; the T/C (dose: 800.0 mg/kg/injection, schedule: Q01DX009 (sc), vehicle: water) is 94 % of control and 100 % of control; the T/C under setting [10] was 100 % of control and 112 % of control. Moreover, the T/C is, setting by setting: (dose: 833.0 mg/kg/injection, schedule: Q02DX009 (sc), vehicle: steriod suspending solution) 103 % of control; (dose: 833.0 mg/kg/injection, schedule: Q02DX Z (sc), vehicle: steriod suspending solution) 105 % of control; (dose: 1080.0 mg/kg/injection, schedule: Q01DX Z (oral), vehicle: water) 111 % of control; (dose: 1080.0 mg/kg/injection, schedule: Q02DX Z (sc), vehicle: water) 155 % of control; (dose: 1388.0 mg/kg/injection, schedule: Q02DX009 (sc), vehicle: steriod suspending solution) 101 % of control; (dose: 1388.0 mg/kg/injection, schedule: Q02DX Z (sc), vehicle: steriod suspending solution) 100 % of control.

Consider `CCOC(=O)NP(=O)(N1CC1(C)C)N1CC1(C)C` (stereo not drawn), for which the T/C is 91 % of control under setting [5]; 100 % of control under setting [6]; 95 % of control (dose: 130.0 mg/kg/injection, schedule: Q01DX Z (sc), vehicle: methylcellulose (MC)); 100 % of control under setting [7]; 100 % of control (dose: 216.0 mg/kg/injection, schedule: Q01DX Z (sc), vehicle: methylcellulose (MC)); 100 % of control under setting [8]. The T/C under setting [9] is 100 % of control.
